Legend:
APOL1 G2 [1] = molecular target: T1, APOL1 G2 (Homo sapiens, UniProt O14791, DEL388-389); test: Rescue of HEK293 cell death caused by overexpression of APOL1 (CellTiter-Glo luminescence), HEK293/T-REx APOL1 G2/clone #2; type: cell-based; conditions: reversal of cell death caused by overexpression of APOL1; geometric mean of at least 2 assay runs, † = single assay run (technical duplicate)
T1 construct: expressed in transfected cells; host or cells: HEK293 T-REx clonal lines: HEK T-REx/GCaMP6f/APOL1 G2 K6.3 in A1, HEK293/T-REx APOL1 G2/clone #2 in A2
T1 sequence (O14791 with tags, fused parts or gaps DEL388-389): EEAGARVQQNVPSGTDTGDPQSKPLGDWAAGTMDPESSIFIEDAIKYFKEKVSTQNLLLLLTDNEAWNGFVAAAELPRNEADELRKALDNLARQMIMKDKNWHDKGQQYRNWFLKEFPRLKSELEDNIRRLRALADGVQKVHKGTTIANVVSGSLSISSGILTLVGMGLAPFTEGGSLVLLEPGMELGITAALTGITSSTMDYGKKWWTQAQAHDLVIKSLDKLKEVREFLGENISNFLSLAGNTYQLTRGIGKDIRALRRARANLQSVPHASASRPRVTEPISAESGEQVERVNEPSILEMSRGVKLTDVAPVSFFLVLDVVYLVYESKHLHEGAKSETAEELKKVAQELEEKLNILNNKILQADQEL
Outline: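 Rescue EC50s come from four-parameter logistic fits, geometric mean of at least 2 runs on separate days, each in duplicate. Readout: CellTiter-Glo luminescence after 17 h at 37 °C of 5,000 HEK293/T-REx APOL1 G2 clone #2 cells/well, with 6 ng/mL doxycycline to induce APOL1 and 3-fold serial compound dilutions in 0.5% DMSO.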

APOL1 G2 [2] = molecular target: T1, APOL1 G2; test: APOL1 calcium transport inhibition assay (GCaMP6f calcium influx, FLIPR) in HEK T-REx/GCaMP6f/APOL1 G2 K6.3 cells; type: cell-based; conditions: inhibition of APOL1-mediated calcium influx; geometric mean of at least 2 assay runs, † = single assay run (technical duplicate)
Outline: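 HEK293 cells stably expressing GCaMP6f, APOL1 G2 induced 6 h with doxycycline (20 ng/mL added), then washed into Ca2+-free Tyrode's buffer pH 7.4. Compounds (8-point dose response) preincubated 10 min at room temperature, then Ca2+ injected to 5 mM final and influx read on FLIPR. AC50 reported as geometric mean of runs.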

Row | SMILES | AC50 (APOL1 G2 [2]) | EC50 (APOL1 G2 [1])
1 | C[C@@H]1C[C@H](COc2ccc(S(=O)(=O)CCCS(C)(=O)=O)cc2)CN1CCc1cccc(C#N)c1 [Compound 162, 3-{2-[(2R,4S)-4-{[4-(3-methanesulfonylpro-panesulfonyl)phe-noxy]methyl}-2-methylpyrrolidin-1-yl]ethyl}benzonitrile] | 233 nM | 27.9 nM
2 | CS(=O)(=O)c1ccc(OC[C@@H]2CN(CCc3cc(C#N)cc(C(F)(F)F)c3)CCN2)cc1 [Compound 193, 3-{2-[(3S)-3-[(4-methanesulfonylphenoxy)methyl]piperazin-1-yl]ethyl}-5-(trifluoromethyl)benzonitrile] | 1450 nM | 782 nM
3 | C[C@@H]1CN(CC(O)c2cc(Cl)cc(C#N)c2)C[C@H]1COc1ccc(S(C)(=O)=O)cc1 (single isomer, unassigned) [Compound 122, 3-chloro-5-[(1R or 1S)-1-hydroxy-2-[(3S,4S)-3-[(4-methanesulfonylphenoxy)methyl]-4-methylpyrrolidin-1-yl]ethyl] benzonitrile] | 709 nM | 1340 nM
4 | CC1CC(COc2ccc(S(C)(=O)=O)cc2)CN1CCc1cccc(C#N)c1 (single isomer, unassigned) [Compound 137, 3-{2-[(2S,4R or 2R,4S or 2R,4R or 2S,4S)-4-[(4-methanesulfon-ylphenoxy)meth-yl]-2-methyl-pyrrolidin-1-yl]-ethyl}benzo-nitrile] | > 10000 nM | 4620 nM
5 | C[C@@H]1CN(CCc2cccc(Cl)c2)C[C@@H]1COc1ccc(S(C)(=O)=O)cc1 (single isomer, unassigned) [Compound 151, (3R,4S or 3S, 4R)-1-[2-(3-chlorophenyl)-ethyl]-3-[(4-methanesulfon-ylphenoxy)meth-yl]-4-methyl-pyrrolidine] | 310 nM | 1340 nM
6 | CN(c1ccc(OC[C@@H](O)CN2CCC(c3cccc(Cl)c3)C2(C)C)cc1)S(C)(=O)=O (stereo partly drawn) [Compound 68, N-(4-((2S)-3-(3-(3-chlorophenyl)-2,2-dimethylpyrrolidin-1-yl)-2-hydroxypropoxy)phe-nyl)-N-methylmethanesulfon-amide] | 916 nM | 591 nM
7 | CC(CN1C[C@@H](COc2ccc(S(C)(=O)=O)cc2)[C@H](C)C1)c1cc(Cl)cc(C#N)c1 (single isomer, unassigned) [Compound 148, 3-chloro-5-[(2S or 2R)-1-[(3S, 4S)-3-[(4-meth-anesulfonylphen-oxy)methyl]-4-methylpyrroli-din-1-yl]propan-2-yl]benzonitrile] | 615 nM | 80.8 nM
8 | C[C@@H]1C[C@H](COc2ccc(S(C)(=O)=O)cc2)CN1CC(O)c1cc(Cl)cc(C#N)c1 (single isomer, unassigned) [Compound 115, 3-chloro-5-[(1R or 1S)-1-hydroxy-2-[(2R,4S)-4-[(4-methanesulfonylphenoxy)methyl]-2-methylpyrrolidin-1-yl]ethyl] benzonitrile] | 756 nM | 44.7 nM
9 | CS(=O)(=O)c1ccc(CCC2CCCN(CCc3cccc(Cl)c3)C2)cc1 (single isomer, unassigned) [Compound 41, (R) or (S)-1-(3-chlorophenethyl)-3-(4-(methylsulfonyl)phenethyl)piperidine] | 2110 nM | 2820 nM
10 | C[C@@H]1CN(CCc2cccc(Cl)c2)C[C@H]1COc1ccc(S(C)(=O)=O)cc1 (single isomer, unassigned) [Compound 155, (35,4S or 3R, 4R)-1-[2-(3-chlorophenyl)-ethyl]-3-[(4-methanesulfon-ylphenoxy)meth-yl]-4-methyl-pyrrolidine] | 1980 nM | 2490 nM
11 | C[C@@H]1CN(CC(O)c2cccc(Cl)c2)C[C@H]1COc1ccc(S(C)(=O)=O)cc1 (stereo partly drawn) [Compound 123, 1-(3-chlorophenyl)-2-((3S,4S)-3-methyl-4-((4-(methylsulfonyl)phenoxy)methyl)pyrrolidin-1-yl)ethan-1-ol] | 376 nM | 300 nM
12 | Cc1c(C#N)cc(Cl)cc1CCN1C[C@@H](COc2ccc(S(C)(=O)=O)cc2)[C@H](C)C1 [Compound 144, 5-chloro-3-{2-[(3S,4S)-3-[(4-methanesulfon-ylphenoxy)meth-yl]-4-methyl-pyrrolidin-1-yl]-ethyl}-2-methyl-benzonitrile] | 423 nM | 256 nM

The next lines start with results.

Row | AC50 (APOL1 G2 [2]) | SMILES | EC50 (APOL1 G2 [1])
13 | 943 nM | CN(c1ccc(OC[C@H](O)CN2CCC(c3cccc(Cl)c3)C2(C)C)cc1)S(C)(=O)=O (stereo partly drawn) [Compound 71, N-(4-((2R)-3-(3-(3-chlorophenyl)-2,2-dimethylpyrrolidin-1-yl)-2-hydroxypropoxy)phe-nyl)-N-methylmethanesulfon-amide] | 1960 nM
14 | 409 nM | C[C@@H]1C[C@H](COc2ccc(S(=O)(=O)CCO)cc2)CN1CCc1cc(Cl)cc(C#N)c1 [Compound 165, 3-chloro-5-{2-[(2R,4S)-4-{[4-(2-hydroxyethanesul-fonyl)phenoxy]meth-yl}-2-methylpyrrolidin-1-yl]ethyl}benzonitrile] | 30.2 nM
15 | > 25000 nM | CN(c1ccc(OC[C@@H](O)CN2CCOC(c3cccc(Cl)c3)C2)cc1)S(C)(=O)=O (single isomer, unassigned) [Compound 81, N-(4-((S)-3-((S) or (R)-2-(3-chlorophenyl)morpho-lino)-2-hydroxypropoxy)phe-nyl)-N-methylmethanesulfon-amide] | > 30000 nM
16 | 704 nM | C[C@@H]1CN(CC(O)c2cccc(C#N)c2)C[C@H]1COc1ccc(S(C)(=O)=O)cc1 (stereo partly shown) [Compound 126] | 560 nM
17 | 1070 nM | CS(=O)(=O)c1ccc(OCC2(O)CCCN(CCc3cccc(Cl)c3)C2)cc1 (stereo not shown) [Compound 4, 1-(3-chlorophenethyl)-3-((4-(methylsulfonyl)phenoxy)methyl) piperidin-3-ol] | 2350 nM
18 | 104 nM | C[C@@H]1CN(CCc2cccc(C#N)c2)C[C@H]1COc1ccc(S(=O)(=O)C2CNC2)cc1 [Compound 172, 3-{2-[(3S,4S)-3-{[4-(azetidine-3-sulfonyl)phenoxy]methyl}-4-methylpyrrolidin-1-yl]ethyl}benzonitrile] | 203 nM
19 | 266 nM | CN(c1ccc(OCC2CCCN(CCc3cccc(Cl)c3)C2)cc1)S(C)(=O)=O (single isomer, unassigned) [Compound 8, (S) or (R)—N-(4-((1-(3-chlorophenethyl)piperidin-3-yl)methoxy)phenyl)-N-methylmethanesulfonamide] | 132 nM
20 | 946 nM | CN(c1ccc(NCC(O)CNCCc2cccc(Cl)c2)cc1)S(C)(=O)=O (stereo not shown) [Compound 105, N-(4-((3-((3-chlorophenethyl)a-mino)-2-hydroxypropyl)ami-no)phenyl)-N-methylmethanesulfon-amide] | > 12400 nM
21 | 12900 nM | CN(c1ccc(OC[C@@H](O)CN2CCC(c3cccc(Cl)c3)C2(C)C)cc1)S(C)(=O)=O (single isomer, unassigned) [Compound 69, N-(4-((S)-3-((S) or (R)-3-(3-chlorophenyl)-2,2-dimethylpyrrolidin-1-yl)-2-hydroxypropoxy)phe-nyl)-N-methylmethanesulfon-amide] | > 30000 nM
22 | < 236 nM | C[C@@]1(O)CN(CCc2cccc(Cl)c2)C[C@H]1COc1ccc(S(C)(=O)=O)cc1 (racemic) [Compound 205] | 1590 nM
23 | 731 nM | CS(=O)(=O)c1ccc(OCC2CN(CCc3cccc(Cl)c3)CCC2O)cc1 (single isomer, unassigned) [Compound 32, (3S,4S) or (3R,4S) or (3S,4R) or (3R,4R)-1-(3-chlorophen-ethyl)-3-((4-(methylsulf-onyl)phenoxy)methyl) piperidin-4-ol] | 5770 nM
24 | 229 nM | C[C@@H]1C[C@H](COc2ccc(S(C)(=O)=O)cc2)CN1CC(O)c1cccc(Cl)c1 (single isomer, unassigned) [Compound 215, (1S) or (1R)-1-(3-chlorophenyl)-2-[(2R,4S)-4-[(4-methanesulfonylphenoxy)methyl]-2-methylpyrrolidin-1-yl]ethan-1-ol] | 42.2 nM
25 | 198 nM | CN=S(C)(=O)c1ccc(OC[C@@H]2CN(CCc3cc(Cl)cc(C#N)c3)CCN2)cc1 (single isomer, unassigned) [Compound 187, 3-chloro-5-{2-[(3S)-3-({4-[(S or R)-methyl(methyl-imino)oxo-λ^6-sulfanyl]pheno-xy}methyl)pipera-zin-1-yl]ethyl}benzo-nitrile] | 436 nM
26 | < 5000 nM | CC1CC(COc2ccc(S(C)(=O)=O)cc2)CN1CCc1cccc(Cl)c1 (single isomer, unassigned) [Compound 57, (2S,4R) or (2S,4S) or (2R,4S) or (2R,4R)-1-(3-chlorophenethyl)-2-methyl-4-((4-(methylsulfonyl)phenoxy)methyl)pyrrolidine] | 1680 nM
